Results as given in patent US11591300B2, “Oxazole containing compounds as activators of IDO1 and AhR” (The Brigham and Women's Hospital, Inc., priority 2017, dated 2023).
“Also recorded” adds a separate entry of the source.

How the values were obtained:
IECs = assay: LC-MS of deuterated L-trp (D5-Trp) metabolites in IEC lysates; type: cell-based; settings: within 6 hours of exposure
Experimental: IDO1 is a rate-limiting enzyme involved in tryptophan catabolism that generates formyl-kyneurenine which can be further metabolized into a variety of AhR agonists (Higuchi and Hayaishi Arch Biochem Biophys 1967, Nguyen and Bradfield 2008, Zelante et al. 2014). […] To specifically identify these tryptophan derived products, IECs were cultured with deuterated L-trp (D5-Trp) and performed high performance liquid chromatography mass spectrometry (LC-MS) on lysates stimulated with oxazolone, TMO, frag-oz or TMC control (FIG. 5C). […] Taken together these latter studies are consistent with a model in which exposure of IECs to oxazole containing compounds leads to the activation of IDO1 and generation of tryptophan-derived metabolites that induce the AhR pathway to downregulate CD1d-restricted responses associated with the production of IL-10 (FIG. 6).

primary hepatocytes = assay: IL-10 production from primary hepatocytes co-cultured with 24.7 iNKT hybridoma; settings: response to iNKT cells in the presence of α-GC
recombinant IDO1 = recombinant IDO1 (Homo sapiens, UniProt P14902); assay: Recombinant IDO1 conversion of L-tryptophan to formyl-kyneurenine; type: biochemical; settings: compared to control (TMC) or vehicle
Chain of recombinant IDO1 (P14902 whole entry, species assumed): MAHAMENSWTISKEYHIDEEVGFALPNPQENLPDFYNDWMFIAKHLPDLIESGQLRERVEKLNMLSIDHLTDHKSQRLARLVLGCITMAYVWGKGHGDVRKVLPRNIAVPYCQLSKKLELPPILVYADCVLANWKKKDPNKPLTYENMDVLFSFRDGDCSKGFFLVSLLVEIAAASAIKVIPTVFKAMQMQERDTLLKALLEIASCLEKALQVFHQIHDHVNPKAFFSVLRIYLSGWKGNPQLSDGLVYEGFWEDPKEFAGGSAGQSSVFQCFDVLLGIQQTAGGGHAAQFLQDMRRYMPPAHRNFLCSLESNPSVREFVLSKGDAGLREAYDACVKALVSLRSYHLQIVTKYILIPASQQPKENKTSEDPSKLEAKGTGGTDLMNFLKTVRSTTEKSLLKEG

MODE-K cells [1] = assay: CD1d-restricted IL-10 production in MODE-K:NKT cell hybridoma co-culture; type: cell-based, mouse; settings: for compound induced inhibition of CD1d-restricted IL-10 production when AhR expression is silenced / decrease of IL-10 production when AhR was silenced: AhR siRNA; for compound induced inhibition of CD1d-restricted IL-10 production when AhR expression is silenced: IEC:iNKT cell co-cultures; for IL-10 production / decrease of IL-10 production when AhR was silenced: tryptophan-deficient conditions supplemented with kyneurenic acid; for epithelial derived IL-10: no exogenous α-GC
[2] = Wambaugh et al. 2014; cited from earlier work
[3] = target: T1, aryl hydrocarbon receptor (AhR) (Mus musculus, UniProt P30561); assay: AhR firefly luciferase reporter in IECs; type: cell-based; settings: compared to vehicle or 1,2,4-trimethylcyclopentane
T1 construct: IECs were transfected with an AhR firefly luciferase reporter; endogenous in cells; host or cells: MODE-K (mouse intestinal epithelial cell line)
T1 sequence (P30561 10-848): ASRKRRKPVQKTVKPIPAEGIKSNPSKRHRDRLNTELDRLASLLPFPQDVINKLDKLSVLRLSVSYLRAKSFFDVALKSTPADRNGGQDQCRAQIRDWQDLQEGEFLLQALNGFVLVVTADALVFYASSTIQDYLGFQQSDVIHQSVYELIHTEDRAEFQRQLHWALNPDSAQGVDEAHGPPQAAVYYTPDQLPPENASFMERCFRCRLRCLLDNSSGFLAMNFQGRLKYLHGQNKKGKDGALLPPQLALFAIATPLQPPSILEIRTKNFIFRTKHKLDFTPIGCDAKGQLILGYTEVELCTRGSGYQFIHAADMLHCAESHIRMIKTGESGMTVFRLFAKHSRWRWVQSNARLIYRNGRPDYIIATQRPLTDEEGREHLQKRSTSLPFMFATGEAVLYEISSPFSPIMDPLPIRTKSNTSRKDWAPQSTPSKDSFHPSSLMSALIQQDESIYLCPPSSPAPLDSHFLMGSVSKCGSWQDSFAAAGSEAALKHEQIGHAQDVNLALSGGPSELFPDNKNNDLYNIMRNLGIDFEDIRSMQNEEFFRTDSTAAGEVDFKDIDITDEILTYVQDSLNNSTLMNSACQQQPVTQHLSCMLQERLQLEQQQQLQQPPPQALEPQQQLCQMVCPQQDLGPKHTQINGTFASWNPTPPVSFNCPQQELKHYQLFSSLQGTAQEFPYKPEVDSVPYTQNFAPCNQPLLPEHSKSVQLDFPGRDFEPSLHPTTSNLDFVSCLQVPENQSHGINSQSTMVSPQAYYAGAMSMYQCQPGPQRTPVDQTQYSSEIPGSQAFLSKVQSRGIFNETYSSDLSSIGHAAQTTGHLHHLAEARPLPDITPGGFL

MODE-K cells [4] = assay: Surface CD1d loaded with α-GC (L363 antibody staining) in MODE-K cells; type: cell-based, mouse; settings: for compound induced reduction of cell surface CD1d lipid antigen loading when AhR expression is silenced: AhR siRNA; for loading of α-GC on CD1d at the cell surface (L363 staining): MODE-K cells conditioned with compound
Text: (§1) In light of the decreased MTP expression observed in oxazolone treated IECs (FIG. 1B) and given that MTP loss alters the ability of CD1d to acquire exogenous antigens, such as α-GC, and CD1d elicited IL-10 responses by epithelial cells (Dougan et al. 2005, Dougan et al. 2007, Zeissig et al 2017, Sagiv et al. 2007, Brozovic et al. 2004, Olszak et al. 2014), it was investigated whether CD1d expression and lipid loading on oxazolone conditioned IECs.

MODE-K cells [5] = assay: Relative transcript abundance of target genes in MODE-K cells conditioned with compounds; settings: MODE-K cells conditioned with compound, normalized to β-actin
Text: 4-ethoxymethylene-2-phenyl-2-oxazol-5-one, (referred to as oxazolone, FIG. 1A) has been widely utilized in models of contact hypersensitivity and when applied to the mucosa has been proposed to cause colitis through its properties as a hapten (Gorbachev and Fairchild 2001). However to date there is limited evidence for hapten-specific antibody production or responses following topical oxazolone sensitization or hapten modified autologous proteins or luminal antigens identified at mucosal sites (Singleton et al. 2016, Yanaba et al. 2008, Wirtz et al. 2007). […] It was then determined whether oxazolone could affect the expression of these transcripts in the intestinal epithelium in a cell intrinsic manner by directly stimulating an immortalized intestinal epithelial cell line (IEC) derived from mouse small intestine, MODE-K, with oxazolone.
To test this, a systematic in vitro system was devised to assess transcriptional and CD1d-restricted responses in IECs in response to stimulation with dietary OxC structures, including 2,4,5-trimethyl-2,5-dihydro-1,3-oxazole (referred to as TMO, FIG. 1A) found in coffee, peanuts, meats and utilized as a food additive, which lacks the 2-phenyl ring, 5-ketone, and 4-ethoxymethylene present in oxazolone (Vitzthum et al. 1975, Stoffesima et al. 1968, Lee et al. 1981, Chang et al. 1968, Ho and Hartman 1968).

C57Bl/6 mice [6] = assay: Intra-rectal administration, colonic inflammation in vivo; parameters: species or system mouse; settings: for effect of skin pre-sensitization with the other compound (oxazolone or TMO) on rectal responses: topical sensitization followed by intra-rectal challenge
Experimental: It was tested whether a dietary sourced minimal oxazole structure was sufficient to induce intestinal inflammation in vivo. […] To confirm this, the ability of oxazolone skin pre-sensitization to affect the responses to rectal challenge with TMO and vice-versa (FIG. 9D).
Next, it was tested whether B17 microcin derivatives could induce intestinal inflammation in vivo. Therefore, adequate quantities of a minimal B17 derivative (termed frag-oz, FIG. 2D) were synthesized to perform in vivo experiments and challenged animals via intra-rectal administration. […] These studies identify an oxazole containing microbial mimic that promotes CD1d-dependent intestinal inflammation independent of its classical anti-microbial activity.
These studies reveal a novel role for epithelial derived AhR signals in promoting mucosal inflammation when exposed to OxC.

[7] = system: epithelial enriched colon fractions; settings: after intra-rectal oxazolone challenge; Olszak et al. 2014; cited from earlier work
C57Bl/6 mice [8] = settings: germ free animals; Olszak et al. 2012; cited from earlier work
[9] = system: bone marrow-derived dendritic cells; assay: IFN-γ production in bone marrow-derived dendritic cell : 24.7 iNKT hybridoma co-culture; type: cell-based; settings: bone marrow-derived dendritic cells with 24.7 iNKT hybridoma and α-GC
MODE-K cells [10] = assay: Surface and intracellular CD1d protein expression in MODE-K cells (flow cytometry); type: cell-based, mouse; settings: IECs stimulated with compound
Text: as §1

[11] = IECs cultured in tryptophan-deficient media
[12] = MODE-K pre-conditioned with compound, loaded with α-GC, co-culture with 24.7 iNKT hybridoma
[13] = tryptophan-deficient media supplemented with exogenous L-tryptophan
[14] = IEC enriched colonic fractions after intra-rectal administration
[15] = intra-rectal administration, wildtype
[16] = AhrΔIEC relative to Ahrfl/fl mice, intra-rectal challenge

Structure (SMILES) | metabolite that D5-Trp was further metabolized to upon stimulation (IECs) | compound induced inhibition of IL-10 production in hepatocytes from Ahr−/− mice (primary hepatocytes) | ability of IDO1 to convert tryptophan to formyl-kyneurenine (recombinant IDO1) | compound induced inhibition of CD1d-restricted IL-10 production when AhR expression is silenced (MODE-K cells [1]) | CD1d-restricted IL-10 production (MODE-K cells [1]; [11]) | CD1d-restricted IL-10 production (MODE-K cells [1]; [12]) | IL-10 production (MODE-K cells [1]) | decrease of IL-10 production when AhR was silenced (MODE-K cells [1]) | CD1d-restricted IL-10 production (MODE-K cells [1]; [13]) | AhR transcriptional activity [3] | compound induced reduction of cell surface CD1d lipid antigen loading when AhR expression is silenced (MODE-K cells [4]) | loading of α-GC on CD1d at the cell surface (L363 staining) (MODE-K cells [4]) | Ido1 transcripts (MODE-K cells [5]) | Mttp transcripts (MODE-K cells [5]) | effect of skin pre-sensitization with the other compound (oxazolone or TMO) on rectal responses (C57Bl/6 mice [6]) | also measured
CC1=NC(C)OC1C (stereo not shown) [TMO, 2,4,5-trimethyl-2,5-dihydro-1,3-oxazole] | xanthurenic acid | resistance | enhanced | reversed | no longer attenuated | limited | decreased IL-10 production | reduced when AhR was silenced | attenuation of CD1d-restricted IL-10 production | induced robust AhR transcriptional activity | reversed | decreased cell surface staining | induced expression of these genes in vitro and in vivo | suppressed | did not affect | detection in human urine [2]: detected in human urine; Cyp1a1 transcripts in IEC in vivo (C57Bl/6 mice [6]; [14]): induction of cyp1a1; Mttp transcripts in IEC in vivo (C57Bl/6 mice [6]; [14]): downregulation of Mttp; Th1 and Th2 cytokines (IL-13, IFN-γ) from colon explants (C57Bl/6 mice [6]; [15]): production of Th2 and Th1 cytokines including IL-13 and IFN-γ; colon length (C57Bl/6 mice [6]; [15]): colon shortening; histological pathology of the colon (C57Bl/6 mice [6]; [15]): histological pathology characterized by superficial inflammation of the gut wall, neutrophil accumulation and ulceration of the epithelial layer of the colon; weight loss (C57Bl/6 mice [6]; [15]): increased weight loss; clinical symptoms, pathology, inflammation in CD1d-deficient animals (C57Bl/6 mice [6]; intra-rectal challenge, CD1d-deficient (KO) vs WT): no evidence of clinical symptoms or pathology
CCO/C=C1\N=C(c2ccccc2)OC1=O [oxazolone, 4-ethoxymethylene-2-phenyl-2-oxazolin-5-one] | kyneurenic acid | resistance | enhanced | reversed | no longer attenuated | attenuated IL-10 production; also recorded: limited | decreased IL-10 production | reduced when AhR was silenced | attenuation of CD1d-restricted IL-10 production | induced robust AhR transcriptional activity | reversed | decreased loading of α-GC on CD1d at the cell surface; also recorded: decreased cell surface staining | induction; also recorded: induced expression of these genes in vitro and in vivo | down-regulation | did not affect | Ido1 transcripts [7]: increased transcripts; Mttp transcripts [7]: decreased transcripts; cyp1a1 transcripts [7]: increased transcripts; inflammation in animals under GF conditions (C57Bl/6 mice [8]): induce inflammation; IFN-γ production [9]: not affected; epithelial derived IL-10 (MODE-K cells [1]; co-culture with autoreactive iNKT cell hybridoma (24.8)): suppressed; epithelial derived IL-10 (MODE-K cells [1]; co-culture with autoreactive non-invariant dNKT cell hybridoma (14S.6)): suppressed; CD1d protein expression or distribution between intracellular and cell surface pools (MODE-K cells [10]): did not display altered CD1d protein expression or distribution; IL-10 production in colonic explants (C57Bl/6 mice [6]; AhrΔIEC compared to wildtype controls, after intra-rectal challenge): elevated IL-10 production; host protection, disease manifestations (C57Bl/6 mice [6]; [16]): conferred host protection; weight loss (C57Bl/6 mice [6]; [16]): diminished weight loss
